Assay results from patent publication US20150133426A1, “SUBSTITUTED PYRROLOPYRIMIDINES” (BAYER PHARMA AKTIENGESELLSCHAFT, priority 2012, published 2015).

Biological target: T1, human full-length MKNK1 (Homo sapiens, UniProt Q9BUB5, T385D)
T1 construct: purchased Carna Biosciences 02-145; host or cells: insect cells, baculovirus expression system
Experiment: MKNK1 kinase high ATP assay (TR-FRET)
Format: biochemical
Conditions: high ATP (2 mM), 15 min preincubation with enzyme, GST-MKNK1 (T344D)
Procedure, shortened: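 GST-tagged full-length human MKNK1 (aa 1-424, T344D), baculovirus-expressed, preincubated 15 min with compound, then reacted 30 min at 22 °C with 2 mM ATP and 0.06 µM biotinylated peptide (final).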

T1 sequence (Q9BUB5 1-424 isoform Q9BUB5-2 T344D): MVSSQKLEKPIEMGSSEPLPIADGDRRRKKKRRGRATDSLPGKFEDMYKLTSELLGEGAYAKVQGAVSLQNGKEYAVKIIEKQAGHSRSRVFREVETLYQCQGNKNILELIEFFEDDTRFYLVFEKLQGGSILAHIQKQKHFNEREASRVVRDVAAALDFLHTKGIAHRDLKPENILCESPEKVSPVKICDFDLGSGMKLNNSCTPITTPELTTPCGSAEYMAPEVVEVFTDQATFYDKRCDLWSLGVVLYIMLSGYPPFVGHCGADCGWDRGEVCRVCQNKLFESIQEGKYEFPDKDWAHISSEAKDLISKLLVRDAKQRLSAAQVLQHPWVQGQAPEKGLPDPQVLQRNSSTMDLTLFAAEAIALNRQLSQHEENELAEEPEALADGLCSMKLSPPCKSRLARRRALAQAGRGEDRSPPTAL

CC(C)Oc1ccc(Nc2ncnc3[nH]c4c(c23)CC(C(=O)NCCCS(C)(=O)=O)CC4)cc1 (racemic) [Example 35, (RS)—N-[3-(Methylsulfonyl)propyl]-4-{[4-(propan-2-yloxy)phenyl]amino}-6,7,8,9-tetrahydro-5H-pyrimido[4,5-b]indole-6-carboxamide]
IC50: 9660 nM

CC(C)NC(=O)C1CCc2[nH]c3ncnc(Nc4cc(Cl)ccc4OC(C)C)c3c2C1 (racemic) [Example 225, (RS)-4-{[5-Chloro-2-(propan-2-yloxy)phenyl]amino}-N-(propan-2-yl)-6,7,8,9-tetrahydro-5H-pyrimido[4,5-b]indole-6-carboxamide]
IC50: 1040 nM

COc1cc2[nH]ncc2cc1Nc1ncnc2[nH]c3c(c12)CC(C(=O)NC(C)C)CC3 (racemic) [Example 216, (RS)-4-[(6-Methoxy-1H-indazol-5-yl)amino]-N-(propan-2-yl)-6,7,8,9-tetrahydro-5H-pyrimido[4,5-b]indole-6-carboxamide]
IC50: 5 nM

CCNC(=O)C1CCc2[nH]c3ncnc(Nc4ccccc4N4CCOCC4)c3c2C1 (racemic) [Example 201, (RS)—N-Ethyl-4-{[2-(morpholin-4-yl)phenyl]amino}-6,7,8,9-tetrahydro-5H-pyrimido[4,5-b]indole-6-carboxamide]
IC50: 215 nM

O=c1[nH]c2ccc(Nc3ncnc4[nH]c5c(c34)CCCC5)cc2[nH]c1=O [Example 110]
IC50: 12200 nM

COc1ccc(F)cc1Nc1ncnc2[nH]c3c(c12)CC(C(=O)NC(C)C)CC3 (racemic) [Example 195, (RS)-4-[(5-Fluoro-2-methoxyphenyl)amino]-N-(propan-2-yl)-6,7,8,9-tetrahydro-5H-pyrimido[4,5-b]indole-6-carboxamide]
IC50: 123 nM

CC(C)Oc1ccc(Cl)cc1Nc1ncnc2[nH]c3c(c12)CC(C(=O)NCCCS(C)(=O)=O)CC3 (racemic) [Example 150, (RS)-4-{[5-Chloro-2-(propan-2-yloxy)phenyl]amino}-N-[3-(methylsulfonyl)propyl]-6,7,8,9-tetrahydro-5H-pyrimido[4,5-b]indole-6-carboxamide]
IC50: 12 nM

O=C(O)C1CCc2[nH]c3ncnc(Nc4ccc(F)cc4OCCO)c3c2C1 (racemic) [Example 182, (RS)-4-{[4-Fluoro-2-(2-hydroxyethoxy)phenyl]amino}-6,7,8,9-tetrahydro-5H-pyrimido[4,5-b]indole-6-carboxylic acid]
IC50: 251 nM
